Literature values in patent US11555010B2, “Diamide antimicrobial agents” (BROWN UNIVERSITY, priority 2019, dated 2023).

Tested on: LT
Conditions: cited from earlier work

CC1=N[C@@H]2[C@@H](O)[C@H](O)[C@@H](CO)O[C@@H]2S1 [NAG-thiazoline]
binding to LT: weak binder
